Activity calls are given as the source filed them.
Legend:
[1] = molecular target: Luciferin 4-monooxygenase (Photinus pyralis, UniProt P08659); test: firefly luciferase enzyme inhibitors, dose response, biochemical, luminescence (AID 1891)
[2] = molecular target: Cyclin-dependent kinase 5/CDK5 activator 1 (Homo sapiens, UniProt Q00535); test: CDK5/p35 kinase inhibitors, dose response, biochemical, cherry-picked samples, set 2 (AID 504545)
[3] = molecular target: Paired box protein Pax-8 (Homo sapiens, UniProt Q06710); test: inhibitors of PAX8-driven TPO luciferase reporter, dose response, RMG-I cells, cherry-pick (AID 687027); assay type: functional, cell-based;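 also: luciferase reporter driven by Pax8 target thyroperoxidase promoter measured by SteadyGlo luminescence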
Chain of Paired box protein Pax-8 (Q06710 whole entry): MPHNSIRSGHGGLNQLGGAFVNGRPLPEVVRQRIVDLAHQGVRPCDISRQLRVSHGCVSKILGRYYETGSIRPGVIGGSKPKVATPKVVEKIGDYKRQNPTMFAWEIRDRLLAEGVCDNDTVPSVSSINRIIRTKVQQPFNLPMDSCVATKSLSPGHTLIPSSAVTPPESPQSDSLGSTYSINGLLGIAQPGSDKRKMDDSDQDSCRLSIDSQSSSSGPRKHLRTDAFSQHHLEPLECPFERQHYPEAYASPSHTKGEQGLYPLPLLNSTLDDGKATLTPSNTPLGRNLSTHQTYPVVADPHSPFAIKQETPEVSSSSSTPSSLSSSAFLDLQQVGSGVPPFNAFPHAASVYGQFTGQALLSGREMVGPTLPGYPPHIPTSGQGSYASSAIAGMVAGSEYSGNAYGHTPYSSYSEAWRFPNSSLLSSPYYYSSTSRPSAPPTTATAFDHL

[4] = molecular target: T1, Neuropeptide Y receptor type 1 (Homo sapiens, UniProt P25929); assay type: functional;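 also: HEK293 cells with a CNG channel challenged with NPY then isoproterenol; potency as antagonist that reverses NPY suppression of cAMP signal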
T1 sequence (P25929 whole entry): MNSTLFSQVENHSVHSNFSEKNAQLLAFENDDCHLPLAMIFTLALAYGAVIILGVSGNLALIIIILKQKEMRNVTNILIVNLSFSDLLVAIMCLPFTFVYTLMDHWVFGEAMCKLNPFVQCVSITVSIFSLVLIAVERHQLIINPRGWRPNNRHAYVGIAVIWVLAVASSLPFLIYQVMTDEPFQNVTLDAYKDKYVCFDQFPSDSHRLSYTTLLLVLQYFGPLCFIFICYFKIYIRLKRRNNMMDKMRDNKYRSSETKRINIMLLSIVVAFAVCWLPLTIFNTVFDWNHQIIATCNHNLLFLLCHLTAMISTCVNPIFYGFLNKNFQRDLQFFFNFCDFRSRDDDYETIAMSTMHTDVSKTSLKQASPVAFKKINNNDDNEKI

[5] = molecular target: T2, Neuropeptide Y receptor type 2 (Homo sapiens, UniProt P49146); assay type: functional, cell-based;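 also: HEK293 cells expressing the receptor and a CNG channel; stimulus was NPY near EC95 followed by isoproterenol to raise cAMP; antagonist potency measured as restoring cAMP signal that NPY suppresses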
T2 sequence (P49146 whole entry): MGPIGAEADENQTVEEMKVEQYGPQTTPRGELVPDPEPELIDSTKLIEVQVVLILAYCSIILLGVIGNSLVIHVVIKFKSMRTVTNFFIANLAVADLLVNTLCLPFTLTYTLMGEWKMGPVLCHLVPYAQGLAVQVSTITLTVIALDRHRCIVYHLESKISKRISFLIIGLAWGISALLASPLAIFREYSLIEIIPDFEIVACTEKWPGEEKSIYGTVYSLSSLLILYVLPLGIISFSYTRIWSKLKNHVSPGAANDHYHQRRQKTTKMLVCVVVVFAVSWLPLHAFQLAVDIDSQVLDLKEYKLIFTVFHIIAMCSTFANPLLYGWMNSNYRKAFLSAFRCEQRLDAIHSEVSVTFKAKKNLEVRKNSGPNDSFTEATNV

[6] = molecular target: SWI/SNF-related matrix-associated actin-dependent regulator of chromatin subfamily A member 2 (Homo sapiens, UniProt P51531); test: Luminescence-based cell-based high throughput dose response assay to identify activators of the function of SWI/SNF related, matrix associated, actin dependent regulator of chromatin, subfamily a, member 2 (SMARCA2, BRM).; assay type: functional
[7] = Counterscreen for activators of the function of SWI/SNF related, matrix associated, actin dependent regulator of chromatin, subfamily a, member 2 (SMARCA2, BRM): Luminescence-based cell-based high throughput dose response assay to identify non-selective compounds using the VP16 reporter assay.; assay type: functional
[8] = molecular target: Peroxisome proliferator-activated receptor gamma/Nuclear receptor corepressor 2 (Homo sapiens, UniProt P37231+Q9Y618); test: Counterscreen for NR2E3 inverse agonists: TR-FRET-based biochemical high throughput dose response assay to identify inverse agonists of the interaction between peroxisome proliferator-activated receptor gamma (PPARg) and nuclear receptor co-repressor 2 (NCOR2).; assay type: functional
Chain of Peroxisome proliferator-activated receptor gamma/Nuclear receptor corepressor 2 (P37231 whole entry): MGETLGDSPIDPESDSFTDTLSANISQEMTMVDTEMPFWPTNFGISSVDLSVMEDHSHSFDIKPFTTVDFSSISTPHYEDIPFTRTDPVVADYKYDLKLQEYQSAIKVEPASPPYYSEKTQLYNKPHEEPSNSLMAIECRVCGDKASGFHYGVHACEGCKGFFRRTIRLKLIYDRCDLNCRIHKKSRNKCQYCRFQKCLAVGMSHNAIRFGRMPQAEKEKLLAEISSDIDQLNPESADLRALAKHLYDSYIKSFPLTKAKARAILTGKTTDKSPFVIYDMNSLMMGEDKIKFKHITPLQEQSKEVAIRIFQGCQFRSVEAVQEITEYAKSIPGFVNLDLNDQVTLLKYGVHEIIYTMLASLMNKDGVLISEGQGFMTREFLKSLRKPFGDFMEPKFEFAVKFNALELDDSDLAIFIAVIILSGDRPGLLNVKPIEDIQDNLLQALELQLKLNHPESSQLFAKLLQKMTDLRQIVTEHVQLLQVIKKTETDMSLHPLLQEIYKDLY
Chain of Peroxisome proliferator-activated receptor gamma/Nuclear receptor corepressor 2 (Q9Y618 whole entry): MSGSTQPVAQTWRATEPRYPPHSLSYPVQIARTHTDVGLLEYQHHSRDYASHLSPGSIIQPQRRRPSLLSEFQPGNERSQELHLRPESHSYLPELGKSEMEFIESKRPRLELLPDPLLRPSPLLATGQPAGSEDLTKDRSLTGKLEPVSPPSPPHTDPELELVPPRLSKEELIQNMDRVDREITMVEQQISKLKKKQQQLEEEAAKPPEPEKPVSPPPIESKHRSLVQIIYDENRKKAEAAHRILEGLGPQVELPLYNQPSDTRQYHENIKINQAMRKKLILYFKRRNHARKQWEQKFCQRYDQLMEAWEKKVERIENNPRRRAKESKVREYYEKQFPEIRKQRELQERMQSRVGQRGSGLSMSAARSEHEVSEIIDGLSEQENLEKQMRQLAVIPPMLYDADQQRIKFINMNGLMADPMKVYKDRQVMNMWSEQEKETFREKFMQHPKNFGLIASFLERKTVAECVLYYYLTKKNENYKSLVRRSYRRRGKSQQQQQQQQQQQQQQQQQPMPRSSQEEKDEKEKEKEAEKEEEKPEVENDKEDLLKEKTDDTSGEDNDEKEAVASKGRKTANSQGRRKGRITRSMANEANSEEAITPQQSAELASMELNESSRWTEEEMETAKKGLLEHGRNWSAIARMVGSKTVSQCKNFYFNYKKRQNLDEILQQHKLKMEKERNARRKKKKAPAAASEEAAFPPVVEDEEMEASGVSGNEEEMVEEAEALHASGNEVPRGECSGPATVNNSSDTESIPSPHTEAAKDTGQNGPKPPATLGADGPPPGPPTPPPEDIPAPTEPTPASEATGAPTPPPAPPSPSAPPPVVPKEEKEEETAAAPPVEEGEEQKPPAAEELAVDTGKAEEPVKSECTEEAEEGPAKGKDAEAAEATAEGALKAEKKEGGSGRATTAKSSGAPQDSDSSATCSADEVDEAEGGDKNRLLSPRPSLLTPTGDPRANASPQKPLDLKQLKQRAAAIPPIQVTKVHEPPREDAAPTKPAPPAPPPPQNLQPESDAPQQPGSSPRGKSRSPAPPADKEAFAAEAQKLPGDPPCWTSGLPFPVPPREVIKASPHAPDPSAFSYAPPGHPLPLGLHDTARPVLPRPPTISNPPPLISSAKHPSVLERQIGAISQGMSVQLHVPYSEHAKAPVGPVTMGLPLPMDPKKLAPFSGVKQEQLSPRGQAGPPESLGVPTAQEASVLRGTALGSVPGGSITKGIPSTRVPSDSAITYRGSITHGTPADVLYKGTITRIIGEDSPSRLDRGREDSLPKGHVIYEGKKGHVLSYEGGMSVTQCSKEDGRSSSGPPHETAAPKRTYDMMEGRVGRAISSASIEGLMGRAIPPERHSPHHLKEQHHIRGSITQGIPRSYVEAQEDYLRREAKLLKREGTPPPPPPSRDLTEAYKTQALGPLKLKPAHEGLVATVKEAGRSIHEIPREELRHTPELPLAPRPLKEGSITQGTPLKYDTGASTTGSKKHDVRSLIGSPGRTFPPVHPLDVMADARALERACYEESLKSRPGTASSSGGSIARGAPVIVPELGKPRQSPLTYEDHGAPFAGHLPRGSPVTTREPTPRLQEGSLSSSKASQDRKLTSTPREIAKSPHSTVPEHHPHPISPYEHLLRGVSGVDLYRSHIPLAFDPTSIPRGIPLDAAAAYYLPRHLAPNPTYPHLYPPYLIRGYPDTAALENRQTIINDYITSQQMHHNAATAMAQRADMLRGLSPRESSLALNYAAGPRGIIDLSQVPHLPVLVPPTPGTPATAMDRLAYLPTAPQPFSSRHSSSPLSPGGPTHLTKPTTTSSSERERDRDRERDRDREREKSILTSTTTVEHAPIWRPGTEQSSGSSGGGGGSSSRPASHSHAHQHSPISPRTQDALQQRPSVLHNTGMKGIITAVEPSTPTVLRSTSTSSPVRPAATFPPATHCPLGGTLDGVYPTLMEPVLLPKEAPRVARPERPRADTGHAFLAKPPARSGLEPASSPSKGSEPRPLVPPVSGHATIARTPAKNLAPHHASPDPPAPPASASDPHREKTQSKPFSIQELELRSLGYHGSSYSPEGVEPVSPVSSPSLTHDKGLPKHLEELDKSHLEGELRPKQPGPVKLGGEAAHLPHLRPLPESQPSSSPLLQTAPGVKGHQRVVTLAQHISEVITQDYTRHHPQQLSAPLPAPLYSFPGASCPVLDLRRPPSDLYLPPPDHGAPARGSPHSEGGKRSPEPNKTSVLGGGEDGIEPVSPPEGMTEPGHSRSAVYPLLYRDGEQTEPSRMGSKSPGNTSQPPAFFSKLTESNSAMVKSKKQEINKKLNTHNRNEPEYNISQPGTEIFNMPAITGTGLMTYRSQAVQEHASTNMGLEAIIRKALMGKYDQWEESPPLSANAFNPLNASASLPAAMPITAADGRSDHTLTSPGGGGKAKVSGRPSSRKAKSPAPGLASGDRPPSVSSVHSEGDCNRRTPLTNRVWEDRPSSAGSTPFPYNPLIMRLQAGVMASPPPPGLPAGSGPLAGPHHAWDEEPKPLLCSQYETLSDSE

[9] = molecular target: Photoreceptor-specific nuclear receptor (Homo sapiens, UniProt Q9Y5X4); test: NR2E3 inverse agonists, dose response, biochemical, TR-FRET (AID 463256); assay type: functional
Chain of Photoreceptor-specific nuclear receptor (Q9Y5X4 whole entry): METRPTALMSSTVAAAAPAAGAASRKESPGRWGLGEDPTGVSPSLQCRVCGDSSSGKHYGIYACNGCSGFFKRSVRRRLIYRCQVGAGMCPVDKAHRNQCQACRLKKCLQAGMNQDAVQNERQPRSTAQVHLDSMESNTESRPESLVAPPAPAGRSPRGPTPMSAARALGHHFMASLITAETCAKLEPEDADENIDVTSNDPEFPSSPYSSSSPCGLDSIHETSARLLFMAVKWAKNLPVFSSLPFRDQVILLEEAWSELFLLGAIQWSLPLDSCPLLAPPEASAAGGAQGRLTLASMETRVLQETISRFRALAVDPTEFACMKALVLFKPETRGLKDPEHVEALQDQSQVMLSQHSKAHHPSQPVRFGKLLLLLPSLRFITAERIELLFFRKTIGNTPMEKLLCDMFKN

[10] = inhibitors of firefly luciferase expression or activity, dose response, H4 neuroglioma cells, luminescence (AID 1990); assay type: functional, cell-based
[11] = Luminescence Cell-Based Dose Response HTS to Identify Inhibitors of 5'UTR Stem-Loop Driven Prion Protein mRNA Translation in H4 Neuroglioblastoma Cells. [Related pubchem assays: 1827 (Project Summary), 1813 (Primary HTS)]; assay type: functional
[12] = inhibitors of SNCA 5'UTR-driven reporter translation, confirmation, H4 neuroglioma cells, luminescence (AID 1988); assay type: functional, cell-based
[13] = molecular target: T3, Replicative DNA helicase DnaB (Mycobacterium tuberculosis, UniProt P9WMR3); test: DnaB intein splicing inhibitors, dose response, biochemical, cell-free fluorescence (AID 449749); assay type: functional
T3 sequence (P9WMR3 whole entry): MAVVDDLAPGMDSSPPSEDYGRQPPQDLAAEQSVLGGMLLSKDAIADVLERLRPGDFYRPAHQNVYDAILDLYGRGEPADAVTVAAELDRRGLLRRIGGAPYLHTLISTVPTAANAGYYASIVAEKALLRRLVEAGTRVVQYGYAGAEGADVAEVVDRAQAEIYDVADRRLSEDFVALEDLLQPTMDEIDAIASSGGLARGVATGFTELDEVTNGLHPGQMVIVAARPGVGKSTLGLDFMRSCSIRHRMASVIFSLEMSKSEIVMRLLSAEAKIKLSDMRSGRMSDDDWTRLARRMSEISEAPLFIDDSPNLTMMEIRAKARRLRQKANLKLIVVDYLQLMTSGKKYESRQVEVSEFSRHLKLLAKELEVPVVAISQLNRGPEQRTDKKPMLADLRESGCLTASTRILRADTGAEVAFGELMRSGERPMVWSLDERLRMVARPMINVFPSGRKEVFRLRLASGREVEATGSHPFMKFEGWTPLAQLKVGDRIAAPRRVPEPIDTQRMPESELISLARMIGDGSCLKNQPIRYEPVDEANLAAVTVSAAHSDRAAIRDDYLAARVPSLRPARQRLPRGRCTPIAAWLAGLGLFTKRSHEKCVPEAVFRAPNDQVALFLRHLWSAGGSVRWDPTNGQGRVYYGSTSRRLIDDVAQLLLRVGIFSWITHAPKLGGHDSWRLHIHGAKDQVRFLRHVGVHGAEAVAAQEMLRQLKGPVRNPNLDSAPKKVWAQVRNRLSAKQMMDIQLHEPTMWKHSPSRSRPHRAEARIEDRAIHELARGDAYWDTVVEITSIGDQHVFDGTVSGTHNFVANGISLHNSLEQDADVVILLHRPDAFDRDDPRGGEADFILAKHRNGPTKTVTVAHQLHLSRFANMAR

[14] = molecular target: T4, Protein RecA (Mycobacterium tuberculosis, UniProt P9WHJ3); test: Fluorescence Cell-Free Homogeneous Dose Retest to Identify Inhibitors of RecA-Intein Splicing Activity. [Related pubchem assays (depositor defined):AID2097, AID2223, AID489010, AID492950]; assay type: functional
T4 sequence (P9WHJ3 whole entry): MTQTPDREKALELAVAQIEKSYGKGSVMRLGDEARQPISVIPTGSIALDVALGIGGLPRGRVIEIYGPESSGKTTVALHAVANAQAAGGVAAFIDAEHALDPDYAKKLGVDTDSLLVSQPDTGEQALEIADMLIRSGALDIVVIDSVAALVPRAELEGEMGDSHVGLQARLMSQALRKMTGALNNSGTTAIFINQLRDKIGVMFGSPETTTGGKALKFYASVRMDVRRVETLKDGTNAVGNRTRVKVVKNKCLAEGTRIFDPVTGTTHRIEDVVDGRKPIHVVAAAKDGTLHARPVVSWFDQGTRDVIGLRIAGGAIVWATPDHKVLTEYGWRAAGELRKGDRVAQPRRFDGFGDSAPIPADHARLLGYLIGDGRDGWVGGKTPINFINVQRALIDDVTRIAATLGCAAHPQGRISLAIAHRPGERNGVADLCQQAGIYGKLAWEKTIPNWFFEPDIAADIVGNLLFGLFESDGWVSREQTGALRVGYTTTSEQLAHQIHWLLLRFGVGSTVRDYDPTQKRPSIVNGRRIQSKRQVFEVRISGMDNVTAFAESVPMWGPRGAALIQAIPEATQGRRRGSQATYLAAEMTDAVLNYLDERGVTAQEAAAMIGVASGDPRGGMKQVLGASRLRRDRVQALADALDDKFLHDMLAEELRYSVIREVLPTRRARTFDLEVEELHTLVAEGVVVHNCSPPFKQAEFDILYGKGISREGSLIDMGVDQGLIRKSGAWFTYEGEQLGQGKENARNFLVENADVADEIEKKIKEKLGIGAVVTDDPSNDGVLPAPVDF

[15] = molecular target: T5, CAAX prenyl protease 2 (Saccharomyces cerevisiae S288c, UniProt Q03530); assay type: biochemical
T5 sequence (Q03530 whole entry): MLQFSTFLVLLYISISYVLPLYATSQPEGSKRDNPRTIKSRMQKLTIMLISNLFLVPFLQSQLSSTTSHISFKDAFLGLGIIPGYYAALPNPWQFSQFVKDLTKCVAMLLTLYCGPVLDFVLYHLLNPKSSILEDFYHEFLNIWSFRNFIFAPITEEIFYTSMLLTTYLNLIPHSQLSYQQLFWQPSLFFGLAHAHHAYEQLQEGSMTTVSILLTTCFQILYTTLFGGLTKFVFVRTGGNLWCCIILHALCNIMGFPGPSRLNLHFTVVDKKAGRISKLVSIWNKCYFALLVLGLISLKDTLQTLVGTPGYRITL

[16] = NIH:OVCAR-3 ovarian cancer cell cytotoxicity, dose response, PAX8 inhibitor project, plate reader, dry powder samples (AID 743044); assay type: functional, cell-based
[17] = cytotoxicity in OVCAR8 ovarian cancer cells, dose response, PAX8 project, cell-based, plate reader, dry powder samples (AID 743197); assay type: functional; details: OVCAR-8
[18] = P. falciparum 3D7-ScDHODH growth inhibitors, dose response, SYBR Green, dry powder samples (AID 1159570); assay type: functional, cell-based;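 also: parasite growth measured after 72 hours of compound exposure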
[19] = HepG2 cell cytotoxicity, dose response, cytotoxicity control, plate reader, dry powder samples (AID 1159569); assay type: functional, cell-based;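 also: inhibitor potency with signal falling toward the positive control level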
[20] = P. falciparum Dd2 growth inhibitors, dose response, SYBR Green, cherry-picked samples (AID 1159567); assay type: functional, cell-based
[21] = P. falciparum Dd2 growth inhibitors, dose response, SYBR Green, dry powder samples (AID 1159566); assay type: functional, cell-based;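 also: potency for growth inhibition with lower SYBR green DNA signal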
[22] = P. falciparum ATP4 D1247Y mutant growth inhibitors, dose response, NITD609-resistant line, SYBR Green, dry powder (AID 1159571); assay type: functional, cell-based;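 also: parasites synchronized at ring stage by sorbitol before testing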

Chain of Cyclin-dependent kinase 5/CDK5 activator 1 (Q00535 whole entry): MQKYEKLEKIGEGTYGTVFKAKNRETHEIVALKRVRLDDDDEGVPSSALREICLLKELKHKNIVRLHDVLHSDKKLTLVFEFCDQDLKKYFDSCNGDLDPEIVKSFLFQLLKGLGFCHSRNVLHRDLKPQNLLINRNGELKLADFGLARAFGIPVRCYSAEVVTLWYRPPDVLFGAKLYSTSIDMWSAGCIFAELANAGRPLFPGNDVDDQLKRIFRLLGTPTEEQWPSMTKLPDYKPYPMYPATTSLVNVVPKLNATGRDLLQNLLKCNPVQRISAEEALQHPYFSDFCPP
Chain of Cyclin-dependent kinase 5/CDK5 activator 1 (Q15078 whole entry, further chain): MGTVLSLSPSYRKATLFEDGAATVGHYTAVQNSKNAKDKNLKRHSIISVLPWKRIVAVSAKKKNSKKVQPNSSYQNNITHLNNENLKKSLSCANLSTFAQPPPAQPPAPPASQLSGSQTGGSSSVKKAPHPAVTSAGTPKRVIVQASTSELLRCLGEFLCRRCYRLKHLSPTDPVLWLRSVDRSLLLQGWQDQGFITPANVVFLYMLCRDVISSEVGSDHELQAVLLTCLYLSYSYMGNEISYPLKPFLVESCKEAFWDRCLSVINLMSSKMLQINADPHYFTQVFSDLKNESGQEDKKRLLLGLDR
Chain of Luciferin 4-monooxygenase (P08659 whole entry): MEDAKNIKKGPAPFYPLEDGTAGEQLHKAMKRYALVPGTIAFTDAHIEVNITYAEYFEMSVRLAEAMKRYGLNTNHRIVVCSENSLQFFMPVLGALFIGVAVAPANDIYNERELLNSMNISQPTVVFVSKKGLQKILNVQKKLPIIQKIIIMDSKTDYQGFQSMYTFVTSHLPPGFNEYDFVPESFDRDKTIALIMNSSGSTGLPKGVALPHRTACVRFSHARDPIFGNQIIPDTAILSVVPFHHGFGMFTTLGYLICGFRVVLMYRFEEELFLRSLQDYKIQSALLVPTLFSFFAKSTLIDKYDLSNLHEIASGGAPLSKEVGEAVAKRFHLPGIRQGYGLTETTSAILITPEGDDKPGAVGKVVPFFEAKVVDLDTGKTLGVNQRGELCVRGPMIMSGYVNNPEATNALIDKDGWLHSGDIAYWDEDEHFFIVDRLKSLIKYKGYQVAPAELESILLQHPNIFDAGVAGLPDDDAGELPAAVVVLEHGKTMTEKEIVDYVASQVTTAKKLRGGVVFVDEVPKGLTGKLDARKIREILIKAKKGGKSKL

COc1ccc(C(=O)ON=C(N)c2ccccn2)cc1
EC50 [1]: 1.47 µM (active) | AC50 [2]: 12.6 µM (active) | AC50 [3]: 8.88 µM (active)

CC(C)OC(=O)/C(=C/c1ccc2c(c1)c1ccccc1n2C)NC(=O)c1ccccc1
IC50 [4]: 19.1 µM (not active) | IC50 [5]: 14.7 µM (not active)

Cc1ccsc1C(=O)OCC(=O)NCCC1=CCCCC1
EC50 [6]: > 91.1 µM (inactive) | EC50 [7]: > 91.1 µM (inactive)

Cc1cccc(-n2ccnc2SCC(=O)N2CCCc3ccccc32)c1C
IC50 [4]: 4.08 µM (active) | IC50 [5]: 1.56 µM (active)

CCn1cnc2sc(C(=O)Nc3ccccc3OC)c(C)c2c1=O
IC50 [8]: 4.9 µM (active) | IC50 [9]: 7.11 µM (active)

Cc1ccc2nc(-c3cc(-c4ccccc4)no3)cn2c1
EC50 [10]: 7.48 µM (inconclusive) | EC50 [11]: 3.61 µM (active) | EC50 [12]: 3.08 µM (active) | IC50 [8]: > 39.8 µM (not active) | IC50 [9]: > 39.8 µM (not active)

COc1ccc(-c2cc(C#N)nc(Cl)n2)cc1
AC50 [13]: 79.8 µM (active) | EC50 [14]: 37.2 µM (active) | EC50 [6]: > 91.2 µM (inactive) | EC50 [7]: > 91.2 µM (inactive)

Oc1ccc(-c2nc3ccccn3c2NCc2ccc3c(c2)OCO3)cc1
AC50 [15]: 27.7 µM (active)

O=C(CCc1nc(-c2ccccc2)c(-c2ccccc2)o1)OCc1ccc(Br)cc1
IC50 [4]: 8.36 µM (active) | IC50 [5]: 15.1 µM (not active)

O=C(Nc1cccc(-n2cnnn2)c1)c1cc2ccccc2o1
IC50 [8]: 5.91 µM (active) | IC50 [9]: 6.55 µM (active)

CN1CCN(C(=O)c2ccc3c(c2)NC(=O)/C(=C/c2ccccc2)S3)CC1
AC50 [2]: 29.7 µM (active)

CCOC(=O)c1cc2c(O)nccc2nc1C
AC50 [15]: 10.3 µM (active)

Cc1nn(-c2ncccn2)c2c1C(=O)CC(C)(C)C2Br (stereo unspecified)
AC50 [2]: 69.7 µM (active)

Cc1ccccc1-c1ccc2c(c1)O[C@H](CN(C)C(=O)Nc1ccc(C(F)(F)F)cc1)[C@@H](C)CN([C@H](C)CO)S2(=O)=O
AC50 [3]: 8 µM (active) | AC50 [16]: 41.1 µM (active) | AC50 [17]: > 70 µM (inactive)

C[C@@H]1CCCCO[C@H](CN(C)Cc2ccc(C(F)(F)F)cc2)[C@H](C)CN([C@@H](C)CO)C(=O)c2cc(NS(=O)(=O)c3ccc(Cl)cc3)ccc2O1
AC50 [3]: 5.9 µM (active) | AC50 [16]: 16.4 µM (active) | AC50 [17]: > 70 µM (inactive)

Cc1ccc(S(=O)(=O)N(C)C[C@H]2OCCCC[C@H](C)Oc3ccc(NS(=O)(=O)c4ccc(Cl)cc4)cc3C(=O)N([C@@H](C)CO)C[C@@H]2C)cc1
AC50 [3]: 6.7 µM (active) | AC50 [17]: > 70 µM (inactive)

COc1ccc2c3c([nH]c2c1)[C@@H](CO)N(Cc1cccc(F)c1)CC31CCN(Cc2ccccn2)CC1
AC50 [18]: 1.32 µM (active) | AC50 [19]: 48.6 µM (active) | AC50 [20]: 1.21 µM (active) | AC50 [21]: 1.52 µM (active) | AC50 [22]: 1.1 µM (active)

COc1ccc(S(=O)(=O)N(C)C[C@H]2Oc3c(NC(=O)Nc4cccc5ccccc45)cccc3C(=O)N([C@@H](C)CO)C[C@H]2C)cc1
AC50 [18]: 0.3 µM (active) | AC50 [19]: > 100 µM (inactive) | AC50 [20]: 0.489 µM (active) | AC50 [21]: 0.327 µM (active) | AC50 [22]: 0.277 µM (active)

COc1cccc(NC(=O)N2[C@@H](CO)[C@@H](c3ccccc3)[C@@H]2CNCC(C)C)c1
AC50 [18]: 1.08 µM (active) | AC50 [19]: 67.9 µM (active) | AC50 [20]: 1.78 µM (active) | AC50 [21]: 1.05 µM (active) | AC50 [22]: 1.4 µM (active)

Reference: ChEMBL document CHEMBL1201862, “PubChem BioAssay data set” (2004)
